# Results taken from a melting point compilation (Tetko et al.; mined from patent text by program, amines drawn as free bases though some values may be those of a salt).
row,Structure (SMILES),melting point [°C]
1,CCOC(=O)c1cn(-c2ccc(F)c(NC(=O)OC(C)(C)C)c2F)c2nc(Cl)c(F)cc2c1=O,128 to 131
2,C/C=C/C(=O)NCCn1c(CCCC)nc2c(N)nc3cccnc3c21,198 to 200
3,CN1CC[C@@H](c2c(O)cc(O)c3c(=O)cc(-c4cccc(F)c4Cl)oc23)[C@@H]1CO,221 to 223
4,CCc1[nH]n(C2CCCC2)c2nc(Cc3cccc(O)c3)nc(=O)c1-2,195 to 197
5,CCOC(=O)c1cc(NCc2ccccc2)c(Oc2ccccc2)c(S(=O)(=O)N(C)C)c1,154 to 155
6,COc1ccc(/C=C(\C#N)Cc2ccccc2)cc1OC1CCCC1,111 to 112
7,COc1cc(O)cc(C(F)(F)F)c1,75
8,C=C[C@H]1CC(C(=O)O)=C[C@@H](OC(C)C)[C@@H]1NC(C)=O,206 to 207
9,O=C(CNC(=O)c1ccc(F)cc1)c1cccnc1,164 to 166
10,C=CCc1cc(-c2csc(-c3ccc(OCC)c(OCC)c3)n2)cc(C(=O)OC)c1O,118 to 119
11,CCOC(=O)C(NC(=O)Nc1ccccc1Cl)(c1nc(OC)cc(OC)n1)C(C)C (stereo not drawn),84 to 87
12,CN(C)c1c(F)c(F)c(F)c2c1c(=O)cc(C(=O)O)n2C1CC1,160 to 163
13,O=C(Cl)COC(=O)c1ccccc1,25 to 26
14,COc1cc2c(cc1S(=O)(=O)Cl)CCC2,75 to 77
15,Cc1ccc(COc2ccc(C(=O)NC[C@@H](C(=O)NO)N3CCN(S(C)(=O)=O)CC3)cc2)cc1,180
16,N#Cc1cccc(-c2nc(=O)c3ccccc3s2)c1,200
17,CCS(=O)(=O)Cc1cccc(-c2nc(=O)c3ccccc3s2)n1,188 to 190
18,CC(C)c1cc(Cl)nc(-c2ccc(C#N)cc2)n1,114
19,CCOc1cccc2c1Sc1ccccc1C2,95 to 98
20,CCOCc1nc2c(N)nc3ccccc3c2n1NCCCNC(=O)NC(C)C,174 to 177
21,N#Cc1ccc(-c2ccc(-c3ccc(C#N)cc3)cc2)cc1,299 to 300
22,OC(CN1CCNC1=S)c1cc(Cl)cc(Cl)c1 (stereo not drawn),158
23,CCCc1nc2c(N)nc3cc(-c4cccc(NC(C)=O)c4)ccc3c2s1,173 to 176
24,CC1=C(C(=O)O)CCc2ccccc21,127
25,CCOCc1nc2c(N)nc3ccc(OCc4cccnc4)cc3c2n1CC(C)C,204 to 206

row,Structure (SMILES),melting point [°C]
1,C[C@H](O)c1ccccc1S(=O)(=O)c1ccc(/C=C/c2ccc(F)cc2)cc1,75
2,O=C(O)CCc1cn(Cc2ccc(OCc3ccc4ccccc4n3)cc2)nc1-c1ccccc1,147 to 148
3,CN(C(=O)Nc1ccc2c(ccn2C)c1)c1cccnc1,58 to 60
4,CC(=O)NC1Cc2ccc(O)cc2C1 (stereo not drawn),123 to 126
5,Cn1cc(C(=O)O)cc1C(=O)c1ccccc1,210 to 212
6,CCc1cccc(CC(=O)O)c1OCCn1cc(C(=O)NCc2ccc(Cl)cc2Cl)c(OC(C)C)n1,125 to 126
7,Cc1[nH][nH]c(=O)c1Cc1ccc2ccccc2c1,240 to 244
8,O=C(O)C(Cl)CCCCCCCCCCCCC(Cl)C(=O)O (stereo not drawn),71 to 72
9,CC(C)(C)c1cc(CSCCC(=O)ON(Cc2ccccc2)Cc2ccccc2)cc(C(C)(C)C)c1O,84 to 86
10,CC(C)C(O)(C#Cc1ccsc1)c1cncnc1 (stereo not drawn),102 to 105
11,O=C(O)C1C2CCC(=O)C21 (stereo not drawn),110 to 115
12,Cn1nc(-c2cnc3[nH]cc(C(=O)NCC(C)(C)CO)c3n2)c2ccc(F)cc21,291 to 293
13,NS(=O)(=O)c1ccc(-c2cc(-c3nc(-c4ccc(F)cc4)cc(C(F)(F)F)n3)ccn2)s1,282
14,CSc1nnc(C2(C)CC2)c(=O)n1N,115 to 116
15,NC(=O)c1ccc2[nH]nnc2c1,178 to 184
16,CN(C)c1ccc(C(c2cc(C(C)(C)C)c(O)c(C(C)(C)C)c2)N2CCCCC2)cc1 (stereo not drawn),184 to 185
17,Cc1ccc(Cn2c(=O)c3c(N4CCN(C)CC4)cc(Cl)cc3n(Cc3ccccc3)c2=O)cc1C,96 to 99
18,Cc1c2c(cc(=O)n1CC(C)O)CCC(c1ccccn1)C2 (stereo not drawn),300
19,Cc1cc(C)c2c(c1C)OC(C)(CC#N)C2 (stereo not drawn),58 to 59
20,Cc1cc(C)c2c(c1)Cc1ccccc1S2(=O)=O,103 to 105
21,COC1=NS(=O)(=O)N(C)C(OCCc2ccccc2)=N1,74 to 77
22,CC(C)(C)OC(=O)N1CCC(N2CCN(CCCN3CCCCC3)C2=C(C#N)C#N)CC1,141 to 143
23,Cc1ccc(C)n1N(C)c1ccc(N2CCOCC2)nn1,119 to 122
24,CC(=O)c1cn(Cc2ccccc2)c(=O)n(Cc2ccc(F)cc2)c1=O,106 to 108
25,COC(=O)C1=C(C)NC(C)=C(C(=O)OCCN(O)CCC(c2ccccc2)c2ccccc2)C1c1cccc([N+](=O)[O-])c1 (stereo not drawn),100 to 105

row,Structure (SMILES),melting point [°C]
1,C[C@H]1CC[C@@H](OC(=O)c2nc(Cl)n3c2[C@@H]2CCCN2C(=O)c2ccccc2-3)CC1,176 to 177
2,N#CC1CN1C(=S)NC(=O)c1ccccc1 (stereo not drawn),135 to 140
3,COc1cc2cc(C(C#N)N3CCOCC3)sc2cc1OC (stereo not drawn),196 to 199
4,Cc1ccc(C(Cn2cncn2)c2ccccc2)cc1 (stereo not drawn),98 to 100
5,CC(C)N(C(C)C)P(N)(N)=S,93 to 98
6,Cc1ccc(Oc2ccccc2-n2cc(C(=O)O)nn2)c(O)c1,168 to 169
7,Cc1cnc2c(c1)C[C@H](Cc1ccc(O)cc1)CC2,157 to 158
8,CCc1nc2ccc(C(C(C)C)n3ccnc3)cc2[nH]c1=O (stereo not drawn),204
9,O=C1Nc2ccc(Cl)cc2C1(O)Cc1ccccc1 (stereo not drawn),204 to 205
10,Cc1ccc2cccc(OCc3c(Cl)ccc(C=O)c3Cl)c2n1,184 to 186
11,Cc1ccc(C2COc3c(C)c(C)c(N)c(C)c32)cc1 (stereo not drawn),121 to 122
12,O=C(Nc1ccc2[nH]c(=O)oc2c1)C(=O)N1CCC(Cc2cccc(F)c2)CC1,215 to 217
13,CCCCCS(=O)(=O)NC(=O)CCc1ccc(OCCC2(C)OCCO2)cc1Oc1ncc(C(F)(F)F)cc1Cl,96.5 to 97.5
14,O=C1N(c2ccc(Cl)cc2Cl)Cc2cnc(Nc3ccccc3)nc2N1c1ccc(CO)cc1,121 to 125
15,C=CC(c1cn(-c2ccccc2)nc1OCc1ccc(OCc2nc(-c3ccco3)oc2C)c(OC)c1)n1cncn1 (stereo not drawn),115 to 116
16,CCOC(=O)c1cc(OC)c(OC)c(OC)c1-c1c(C(=O)OCC)cc(OC)c2c1OCO2,95 to 96.5
17,O=C1NCCc2c(-c3ccc(Cl)cc3)[nH]c3cccc1c23,250 to 252
18,Oc1cc2c(cc1CCCOc1ccc3ccccc3c1-c1nnn[nH]1)OC(CCc1ccccc1)C2 (stereo not drawn),121 to 123
19,COCOc1ccc(C=CC(=O)c2ccc(OCc3ccccc3)cc2OC(C)=O)c(OCc2ccccc2)c1,94 to 96
20,CC[C@@H](c1ccccc1)N(Cc1ccc(C(=O)OC)c(F)c1F)S(=O)(=O)c1ccc(Cl)cc1,87 to 89
21,Oc1ccc(-c2ccc3c(Br)c(O)ccc3c2)cc1,208 to 210
22,O=C(Cn1ccnc1)c1nccs1,109 to 112
23,C=CCC(c1c(Cl)c(Cl)cc2[nH]c(=O)c(=O)[nH]c12)S(C)(=O)=O (stereo not drawn),270 to 272
